Laboratory results as given in US10214507B2, “Carbazole-containing amides, carbamates, and ureas as cryptochrome modulators” (Reset Therapeutics, Inc., priority 2014, dated 2019).
pEC50: −log10 of the molar value.

How the values were obtained:
[1] = test system: stable U20S reporter cells harboring Per2-dLuc; experiment: Per2 assay for evaluating the potency of test compounds (circadian luciferase reporter); type: cell-based; settings: amplitude of Per2-dLuc luminescence vs log concentration
In short: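 U2OS Per2-dLuc cells grown 48 h at 37 °C, then synchronized with 5 μM forskolin plus 1 mM luciferin and dosed with 3-fold compound dilutions.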

[2] = test system: core clock gene mRNAs in livers of ICR mice; experiment: Four day study, liver clock gene mRNA by RT-qPCR, ICR mice; type: in vivo, mouse; settings: 50 mg/kg PO BID 4 days; for liver Per2 expression: ICR mice, ZT6
Method: Male ICR mice (weighing 30-35 g), obtained from Charles River Laboratories (Hollister, CA), were used for the experiment following at least 3 days of acclimation. Mice were dosed with vehicle (WFI or 10% Kolliphor) or compound (50 mg/kg, dose volume 5 mL/kg, PO) for 4 days BID (twice a day), beginning in the afternoon of the first day. The last dose of compound or vehicle was administered on the morning of harvest. On the day of harvest (6 hours following the final dose), mice were euthanized by CO2 asphyxiation and 50 mg of liver tissue was excised and placed in a tube containing 500 μl of RNA later.
E.Z.N.A.® HP Total RNA Isolation Kits (R6812-01 and the protocol described in the Manual, Revised 2010) were utilized to prepare and isolate RNA from the liver samples. To prepare the RNA samples, 10-30 mg of sample was removed from RNA-Later and placed in a 1.5 ml microfuge tube. GTC lysis buffer (700 μl) was added to the tissue, which was homogenized with a rotor-stator homogenizer (e.g. Tissue-Tearor, Model #985370 BioSpec Products with 4.5 mm probe, Cat. #985370-04), and then centrifuged at full speed (>13,000×g) for 5 minutes. The cleared supernatant was transferred by pipetting to a DNA Clearance Column Pre-inserted in a 2 mL Collection Tube. The assembled column was centrifuged at 13,000×g for 1 minute, and the flow-through was saved. An equal volume (700 μl) of 70% ethanol was added to the lysate and mixed. The sample was then applied to a HiBind RNA spin column placed into a 2 ml collection tube, which was centrifuged at 10,000×g for 60 seconds at room temperature. RNA Wash Buffer I (250 μl) was added by pipetting directly onto a new HiBind RNA column inserted in a 2 ml collection tube. The assembled column was centrifuged at 10,000×g for 60 seconds. The RNA column was placed into a new 2 ml collection tube. DNase I stock solution is pipetted (75 μl) directly onto the surface of the HiBind RNA resin in each column (Using DNAse Digestion with RNase Free DNase Set (E1091): for each HiBind RNA column, the DNase I stock solution was prepared as followed: E.Z.N.A.® DNase I Digestion Buffer 73.5μl, RNase Free DNase I (20 Kunitz/μl) 1.5 μl=Total Volume 75 μl.). The column with bound RNA was incubated at room temperature (25-30° C.) for 15 minutes. RNA Wash Buffer I (500 μl) was added to the column and placed on a bench top for 2 minutes. After centrifuging at 10,000×g for 60 seconds, discarding the flow-through, 500 μl of RNA Wash Buffer II was added and centrifuged at 10,000×g for 60 seconds. Another 500 μl of RNA Wash Buffer II was added and the column assembly was centrifuged at 10,000×g for 60 seconds. The column was centrifuged for 2 minutes at maximum speed to completely dry the HiBind matrix. The column was placed in a clean 1.5 ml microcentrifuge tube and 40-70 μl of molecular biology grade water is added. After sitting for 1 minute, the column was centrifuged for 2 minutes at maximum speed to elute the RNA. The isolated RNA was collected into the collection tube.
RediPlate 96 RiboGreen RNA Quantification Kit (Invitrogen) RediPlate standard curve was prepared by transferring 20 μl reconstituted RNA standard to a RediPlate well reconstituted in 180 μl RediPlate TE buffer. For liver RNAs prepared from 30-100 mg of tissue using a kit similar to the Omega Bio-Tek HP Total RNA Kit and eluted in RNAse-free water in a volume of 50 μl (microliters), 5 μl of the total RNA is diluted in 195 μl of RediPlate TE buffer (1:40 dilution of RNA), mix. After transferring 5 μl to RediPlate well reconstituted in 195 μl TE buffer and incubating 10 min. at RT, Fluorescence Intensity of wells with standards and samples were read in a Tecan M200 with Excitation set at 480 nm and Emission set at 520 nm with the gain set to −70%. Alternatively, one can use the FlexStation 3 with Ex 488 nm and Em 525 nm and a Cutoff of 515 nm.

[3] = test system: cortisone-induced insulin resistance in Sprague Dawley rats; experiment: Cortisone induced insulin resistance in rats; type: in vivo, rat; settings: cortisone 30 mg/kg sc + 30 mg/kg po
Method: Animals were dosed with cortisone (30 mg/kg sc qd) in combination with test compounds for 6 days and then terminated 27 hours after the final dose of cortisone. A reference standard (Mifepristone) was also included. Cortisone 21-acetate (Sigma C-3130) was supplied by RenaSci and administered using a dose volume of 5 ml/kg via the subcutaneous route as a fine suspension in 1% methylcellulose. […] Mifepristone (Sigma M8046) was provided by RenaSci.
Glucose and insulin determinations were performed on plasma samples obtained from a tail vein bleed taken after a 12 h fast, approximately 27 h after the last cortisone dose. Animals were then terminated and a terminal (cardiac) blood sample taken from which plasma was prepared.
Thirty four male Sprague Dawley rats (weight range 200-250 g) were ordered from Charles River, Margate, Kent, UK. […] Subsequently, animals underwent a 3 day baseline period during which they were dosed once daily with vehicle at t=0 h (07:00). […] Body weight was recorded immediately before dosing began at 07:00 (t=0 h).
On Day 6 of dosing rats were fasted for 12 h beginning at 22:30 (timed to coincide with the Day 7 termination). […] At 10:30 on Day 7, 27 h after the final dose of cortisone, a blood sample (300 μl) was taken from the lateral tail vein into tubes containing EDTA (Sarstedt 16.444). The blood was centrifuged and resultant plasma aliquot stored at −75° C. The animals were euthanized by CO2 asphyxiation followed by cervical dislocation. Terminal blood (approximately 10 ml) was collected by cardiac puncture into tubes containing EDTA (Sarstedt 5 ml 32.332) and then centrifuged and plasma stored at −75° C. The tail vein plasma was analyzed for glucose (n=2) using a commercial clinical reagent (Thermoelectron Infinity glucose reagent (TR15421) and for insulin (n=1) using the Mercodia ultrasensitive rat insulin rat ELISA (10-1251-10).
Plasma glucose and insulin were analyzed by robust regression or general linear model with treatment as a factor and bleeding order and baseline body weight as covariates. A log transformation was used if appropriate. Appropriate multiple comparison tests (two-tailed) were used to determine significant differences from the vehicle group and from the Cortisone group. P<0.05 was considered to be statistically significant.

Row | SMILES | pEC50 [1] | further results
1 | O=C1C2CCC(C2)N1CC(O)Cn1c2ccc(F)cc2c2cc(F)ccc21 (stereo not drawn) [Compound 48, 2-(3-(3,6-difluoro-9H-carbazol-9-yl)-2-hydroxypropyl)-2-azabicyclo[2.2.1]heptan-3-one] | 6.92 | Cry2 transcripts ([2]; ICR mice liver): decrease; increase in Bmal1 mRNA at ZT6 ([2]; ICR mice liver): 8 fold; liver Per2 expression [2]: suppression
2 | COC1CCCN(CC(O)Cn2c3ccc(F)cc3c3cc(F)ccc32)C1=O (stereo not drawn) [Compound 57, 1-(3-(3,6-difluoro-9H-carbazol-9-yl)-2-hydroxypropyl)-3-methoxypiperidin-2-one] | 6.48 | increase in Bmal1 mRNA at ZT6 ([2]; ICR mice liver): ≥ 2 fold; liver Per2 expression [2]: suppression
3 | O=C1[C@H](F)CCN1C[C@H](O)Cn1c2ccccc2c2ccccc21 [Compound 121, (R)-1-((R)-3-(9H-carbazol-9-yl)-2-hydroxypropyl)-3-fluoropyrrolidin-2-one] | 6.68 | –
4 | O=C1[C@@H](F)CCN1C[C@H](O)Cn1c2ccccc2c2ccccc21 [Compound 122, (S)-1-((R)-3-(9H-carbazol-9-yl)-2-hydroxypropyl)-3-fluoropyrrolidin-2-one] | 6.58 | –
5 | C[C@@](O)(CN1CC[C@@H](F)C1=O)Cn1c2ccccc2c2ccccc21 [Compound 123, (R)-1-((S)-3-(9H-carbazol-9-yl)-2-hydroxy-2-methylpropyl)-3-fluoropyrrolidin-2-one] | 6.51 | –
6 | C[C@@](O)(CN1CC[C@H](F)C1=O)Cn1c2ccccc2c2ccccc21 [Compound 124, (S)-1-((S)-3-(9H-carbazol-9-yl)-2-hydroxy-2-methylpropyl)-3-fluoropyrrolidin-2-one] | 6.51 | –
7 | C[C@@](O)(CN1CC[C@H](F)C1=O)Cn1c2ccc(F)cc2c2cc(F)ccc21 [Compound 125, (S)-1-((S)-3-(3,6-difluoro-9H-carbazol-9-yl)-2-hydroxy-2-methylpropyl)-3-fluoropyrrolidin-2-one] | 6.35 | –
8 | C[C@@](O)(CN1CC[C@@H](F)C1=O)Cn1c2ccc(F)cc2c2cc(F)ccc21 [Compound 126, (R)-1-((S)-3-(3,6-difluoro-9H-carbazol-9-yl)-2-hydroxy-2-methylpropyl)-3-fluoropyrrolidin-2-one] | 6.02 | –
9 | C[C@](O)(CN1CC[C@@H](F)C1=O)Cn1c2ccccc2c2ccccc21 [Compound 127, (R)-1-((R)-3-(9H-carbazol-9-yl)-2-hydroxy-2-methylpropyl)-3-fluoropyrrolidin-2-one] | 6.27 | –
10 | C[C@](O)(CN1CC[C@H](F)C1=O)Cn1c2ccccc2c2ccccc21 [Compound 128, (S)-1-((R)-3-(9H-carbazol-9-yl)-2-hydroxy-2-methylpropyl)-3-fluoropyrrolidin-2-one] | 6.76 | –
11 | C[C@H]1CCC(=O)N(C[C@H](O)Cn2c3ccccc3c3ccccc32)C1 [Compound 129, (S)-1-((R)-3-(9H-carbazol-9-yl)-2-hydroxypropyl)-5-methylpiperidin-2-one] | 6.13 | –
12 | C[C@H]1CCC(=O)N(C[C@H](O)Cn2c3ccc(F)cc3c3cc(F)ccc32)C1 [Compound 130, (S)-1-((R)-3-(3,6-difluoro-9H-carbazol-9-yl)-2-hydroxypropyl)-5-methylpiperidin-2-one] | 6.05 | –
13 | C[C@@H]1CCC(=O)N(C[C@H](O)Cn2c3ccccc3c3ccccc32)C1 [Compound 131, (R)-1-((R)-3-(9H-carbazol-9-yl)-2-hydroxypropyl)-5-methylpiperidin-2-one] | 6.55 | –
14 | C[C@H]1CCC(=O)N(C[C@@H](O)Cn2c3ccccc3c3ccccc32)C1 [Compound 132, (S)-1-((S)-3-(9H-carbazol-9-yl)-2-hydroxypropyl)-5-methylpiperidin-2-one] | 5.95 | –
15 | C[C@@H]1CCC(=O)N(C[C@@H](O)Cn2c3ccccc3c3ccccc32)C1 [Compound 133, (R)-1-((S)-3-(9H-carbazol-9-yl)-2-hydroxypropyl)-5-methylpiperidin-2-one] | 6.08 | –
16 | C[C@@H]1CCC(=O)N(C[C@H](O)Cn2c3ccc(F)cc3c3cc(F)ccc32)C1 [Compound 134, (R)-1-((R)-3-(3,6-difluoro-9H-carbazol-9-yl)-2-hydroxypropyl)-5-methylpiperidin-2-one] | 6.40 | –
17 | C[C@H]1CN(C[C@H](O)Cn2c3ccc(F)cc3c3cc(F)ccc32)C(=O)N1 [Compound 135, (S)-1-((R)-3-(3,6-difluoro-9H-carbazol-9-yl)-2-hydroxypropyl)-4-methylimidazolidin-2-one] | 5.95 | –
18 | C[C@@H]1CN(C[C@H](O)Cn2c3ccc(F)cc3c3cc(F)ccc32)C(=O)N1 [Compound 136, (R)-1-((R)-3-(3,6-difluoro-9H-carbazol-9-yl)-2-hydroxypropyl)-4-methylimidazolidin-2-one] | 6.08 | –
19 | C[C@H]1CN(C[C@H](O)Cn2c3ccccc3c3ccccc32)C(=O)N1 [Compound 137, (S)-1-((R)-3-(9H-carbaxol-9-yl)-2-hydroxypropyl)-4-methylimidazolidin-2-one] | 6.12 | –
20 | CC#C[C@]1(O)CC[C@H]2[C@@H]3CCC4=CC(=O)CCC4=C3[C@@H](c3ccc(N(C)C)cc3)C[C@@]21C [Mifepristone, mifepristone, reference compound] | – | HOMA-IR ([3]; insulin resistant rats): 29.99+/−2.54 units; fasted plasma insulin ([3]; rats): 3.62 ± 0.29 ng/mL; fasted plasma glucose ([3]; rats, unit printed as ng/mL): 7.43 ± 0.27 ng/mL
